Measurements from US8993612B2, “Modulators of calcium release-activated calcium channel and methods for treatment of non-small cell lung cancer” (Rhizen Pharmaceuticals SA, priority 2009, dated 2015).
Structures can show the parent of a compound that is named as a salt. Where two headings read alike, the source gives them in different places. One block for each compound: values may come before it.

How the values were obtained:
CRAC channels [1] = target: T1, CRAC channels (Homo sapiens (Human), UniProt Q96D31); experiment: In-vitro CRAC channel inhibition assay in NCI-H460 cancer cell line (thapsigargin-induced calcium influx); type: cell-based; settings: NCI-H460 cells; for inhibition at 1 µM: read-out: NCI-H460 Cell Ca assay % inhibition @ 1 μM; for IC50: read-out: NCI-H460 Cell Ca assay IC 50 nM
T1 sequence (Q96D31 whole entry): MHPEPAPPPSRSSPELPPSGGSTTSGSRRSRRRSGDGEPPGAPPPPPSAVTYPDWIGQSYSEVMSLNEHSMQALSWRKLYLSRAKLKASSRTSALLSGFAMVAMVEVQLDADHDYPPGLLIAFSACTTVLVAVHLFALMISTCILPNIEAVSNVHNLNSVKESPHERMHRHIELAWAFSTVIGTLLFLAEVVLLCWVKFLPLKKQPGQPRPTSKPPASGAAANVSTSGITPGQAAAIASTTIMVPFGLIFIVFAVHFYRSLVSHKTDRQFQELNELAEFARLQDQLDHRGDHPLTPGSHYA
Experimental: Inhibition of CRAC channels was determined following thapsigargin (Sigma, Cat # T9033) induced endoplasmic calcium release in NCI-H460 cells (National Centre For Cell Science (NCCS), Pune).
Cells (30,000 per well) were plated overnight in complete RPMI medium. Medium was substituted with Ca^2+ and Mg^2+ free Hanks buffer and Fluo-8 NW dye (ABD Bioquest, Inc., Sunnyvale, Calif.) loading solution in 96-well black plate. Plate was incubated at 37° C./5% CO2 for 30 min followed by further 15 mM incubation at room temperature. Test compounds (DMSO stocks diluted in Ca^2+ and Mg^2+ free Hanks buffer) at desired concentrations were added to the wells and incubated for 15 min. Thapsigargin (1 μM final concentration) was added to the wells and incubated for 15 min to inhibit the Sarco-endoplasmic reticulum Ca^2+ ATPase pump thereby depleting endoplasmic calcium and raising cytosolic calcium concentrations. Store-operated calcium entry was initiated by adding extracellular Ca^2+ to a final concentration of 2.5 mM. Fluorescence was monitored over 30 mM on a plate reader (BMG Labtech., Germany) with excitation at 485 nm and an emission wavelength at 520 nm. Data were analyzed using GraphPad Prism. IC50 for each compound was determined based on the percent inhibition of Thapsigargin-induced calcium influx into cells.
For Methodology Refer 1B.

CRAC channels [2] = target: T1, CRAC channels; experiment: In-vitro CRAC channel inhibition assay in Jurkat cells (thapsigargin-induced calcium influx); type: cell-based
Experimental: Inhibition of CRAC channels was determined following thapsigargin (Sigma, Cat # T9033) induced endoplasmic calcium release in Jurkat cells. (see Yasurio Yonetoky et. al Bio. & Med. Chem. 14 (2006) 4750-4760). Cells were centrifuged and resuspended in equal volumes ° f Ca^2+ and Mg^2+ free Hanks buffer and Fluo-8 NW dye (ABD Bioquest, Inc., Sunnyvale, Calif.) loading solution at 2×10^5 cells/100 μl/well in 96-well black plate. Plate is incubated at 37° C./5% CO2 for 30 mM followed by further 15 mM incubation at room temperature. Test compounds (DMSO stocks diluted in Ca^2+ and Mg^2+ free Hanks buffer) at desired concentrations were added to the wells and incubated for […]. Thapsigargin (1 μM final concentration) was added to the wells and incubated for 15 min to inhibit the Sarco-endoplasmic reticulum Ca^2+ ATPase pump thereby depleting endoplasmic calcium and raising cytosolic calcium concentrations. Store-operated calcium entry was initiated by adding extracellular Ca^2+ to a final concentration of 1.8 mM. Fluorescence was monitored over […] on a plate reader (BMG Labtech., Germany) with excitation at 485 nm and an emission wavelength at 520 nm. Data were analyzed using GraphPad Prism. IC50 for each compound was determined based on the percent inhibition of thapsigargin-induced calcium influx into cells.

NCI-H460 cells [3] = experiment: In-vitro cell proliferation assay in NCI-H460 cancer cell line (MTT); type: cell-based, human; settings: for inhibition at 10 µM: NCI-H460, 10 μM; for IC50: read-out: NCI-H460 Cell line assay G1 50 nM
Experimental: Growth inhibition assays were carried out using 10% FBS supplemented media. Cells were seeded at a concentration of 5000 cells/well in a 96-well plate. Test compound at a concentration range from 0.01 to 10000 nM were added after 24 h. Growth was assessed using the 3-[4,5-dimethylthiazol-2-yl]-2,5-diphenyltetrazolium bromide (MTT) dye reduction test at 0 h (prior to the addition of the test compound) and 48 h after the addition of test compound. Absorbance was read on a Fluostar Optima (BMG Labtech, Germany) at a wave length of 450 nm. Data were analysed using GraphPad Prism. IC-50 for each compound was determined based on the % inhibition due to the test compound compared to the control.
For methods of cell proliferation assay, see, for example, Mosmann. T., Journal of Immunological Methods, 65(1-2), 55-63, (1983).
The effect of CRAC and/or STIM protein on the proliferation and viability of lung cancer cells was determined as follows.
For Methodology Refer 1C.

TNFα = experiment: Inhibition of TNFα release in human whole blood; type: cell-based; settings: Concanavalin A + PMA, 20 h, read-out: IC 50 Human Whole Blood TNFα
Experimental: (§1) Inhibition of cytokine IL-2, IL-4, IL-5 and TNF α was determined as described below.
(§2) Freshly collected HWB was diluted with RPMI medium (1:4.5) and added to a 96-well plate. Wells were incubated with desired concentrations of the inhibitor for 15 min. Cytokine release was induced by the addition of Concanavalin A (25 μg/ml)+Phorbol Myristate Acetate (50 ng/ml) for IL-2 & TNFα or with Phytohemagglutinin (5 μg/ml) for IL-4 & IL-5 and incubated at 37° C. in an atmosphere containing […]. Supernatant was collected after 20 h (IL-2 & TNFα) or 48 h (IL-4 & IL-5) for estimation of cytokines by ELISA. Data were analysed using GraphPad Prism. IC50 values for each compound were determined based on the percent inhibition due to the test compound compared to the control.

IL-2 = experiment: Inhibition of IL-2 release in human whole blood; type: cell-based; settings: Concanavalin A + PMA, 20 h, read-out: IC 50 Human Whole Blood IL-2
Experimental: as §1, §2

Stim1 = Stim1 mRNA expression in NCI-H460 cells by PCR; type: cell-based, human; settings: 1 and 10 μM, qualitative PCR
Experimental: (§3) Orai1 and Stim1 expression in non-small cell lung cancer cell lines was confirmed by PCR (polymerase chain reaction). Briefly, 5×10^6 cells treated with desired concentrations of the test article were harvested, pelleted, and resuspended in 1 ml TRI Reagent (Sigma, St. Louis, Mo.) and total RNA was extracted as per the manufacturer's instructions. cDNA was prepared using the First Strand cDNA synthesis and amplified using the following primer pairs:
(§4) Bands were resolved by agarose gel electrophoresis and visualized using SYBR safe DNA gel stain.
(§5) Orai and Stim expressions were measured using the methodology described in Example 1 above in NCI-H460 cells but with 1 and 10 μM of compound B.

Stim2 = Stim2 mRNA expression in NCI-H460 cells by PCR; type: cell-based, human; settings: 1 and 10 μM, qualitative PCR
Experimental: as §3, §4, §5

Orai1 = Orai1 mRNA expression in NCI-H460 cells by PCR; type: cell-based, human; settings: 1 and 10 μM, qualitative PCR
Experimental: as §3, §4, §5

NCI-H460 cells [4] = experiment: Cytotoxicity in NCI-H460 cells (lactate dehydrogenase assay); type: cell-based, human; settings: 48 h
Experimental: Cytotoxicity of a test compound (Compound B) was determined using a lactate dehydrogenase assay kit (Cayman Chemicals, MI) as per the manufacturer's instructions with some minor modifications. Briefly, 20,000 cells/well in complete RPMI-1640 media were seeded in a 96-well tissue culture plate and incubated overnight at 37° C. and 5% CO2. The test compound was added to the wells in triplicate at the desired concentrations. Doxorubicin and/or 1% Triton-X were used as a positive control. After 48 h, the media was removed and assayed for lactate dehydrogenase in a colorimetric assay. Optical density was measured on a microplate reader (BMG Labtech., Germany) at 490 nM. Data were analyzed using Graphpad Prism (Graphpad software; San Diego Calif.).

[5] = Body weight in the NCI-H460 xenograft study; type: in vivo; settings: Balb/c nude mice
[6] = test system: NCI-H460 human non-small cell lung cancer xenografts; experiment: Anti-tumor efficacy in female Balb/c nude mice bearing NCI-H460 xenografts; type: in vivo
[7] = test system: CRAC channels over the voltage operated channels (VOC); settings: Yonetoky et al.; cited from earlier work
[8] = 30 mg/kg orally BID for 15 days

- IC50 (CRAC channels [1]): 72.7 nM
- % inhibition (1 uM) (CRAC channels [2]; 1 uM): 100%
Structure (SMILES): Cl.O=C(Cc1ccc2ncccc2c1)Nc1ccc(-n2nc(C3CC3)cc2C2CC2)cc1 [Example 10, N-[4-(3,5-dicyclopropyl-1H-pyrazol-1-yl)phenyl]-2-(quinolin-6-yl)acetamide hydrochloride]

- inhibition at 1 µM (CRAC channels [1]): 100%
- inhibition at 1 µM (CRAC channels [2]; 1 uM): 94%
- IC50 (NCI-H460 cells [3]; Homo sapiens, NCI-H460, 48 h): 710 nM
Structure (SMILES): O=C(Nc1ccc(-n2nc(C(F)(F)F)cc2C2CC2)cc1)c1ccc2ncccc2c1 [Example 17, N-{4-[5-cyclopropyl-3-(trifluoromethyl)-1H-pyrazol-1-yl]phenyl}quinoline-6-carboxamide hydrochloride]

- inhibition at 1 µM (CRAC channels [1]): 100%
- IC50 (CRAC channels [1]): < 200 nM
- inhibition at 1 µM (CRAC channels [2]; 1 uM): 69.5%
- IC50 (NCI-H460 cells [3]; 48 h): 148 nM
- IC50 (NCI-H460 cells [3]; Homo sapiens, NCI-H460, 48 h): < 200 nM
Structure (SMILES): O=C(Cn1cnc2ccccc21)Nc1ccc(-n2nc(C(F)(F)F)cc2C2CC2)cc1 [Example 19, 2-(1H-benzo[d]imidazol-1-yl)-N-{4-[5-cyclopropyl-3-(trifluoromethyl)-1H-pyrazol-1-yl]phenyl}acetamide]
- change in body weight [5, 8]: without any significant change
- reduction in tumor growth [6, 8]: 32%
- inhibition at 1 µM (NCI-H460 cells [3]; Homo sapiens, NCI-H460, 1 uM, 48 h): 100%
- inhibition at 10 µM (NCI-H460 cells [3]; Homo sapiens, 48 h): 83.6%

- inhibition at 1 µM (CRAC channels [1]): 98.1%
- inhibition at 1 µM (CRAC channels [2]; 1 uM): 100%
- IC50 (NCI-H460 cells [3]; Homo sapiens, NCI-H460, 48 h): 358 nM
- IC50 (TNFα): 118 nM
- IC50 (IL-2): 125 nM
Structure (SMILES): O=C(Cc1ccc2ncccc2c1)Nc1ccc(-n2nc(C(F)(F)F)cc2C2CC2)cc1 [Example 27, N-{4-[5-cyclopropyl-3-(trifluoromethyl)-1H-pyrazol-1-yl]phenyl}-2-(quinolin-6-yl)acetamide Hydrochloride]

Continued, compound first:

Structure (SMILES): O=C(Nc1ccc(-n2nc(C3CC3)cc2C2CC2)cc1)c1ccc2nn[nH]c2c1 [Example 2, N-[4-(3,5-dicyclopropyl-1H-pyrazol-1-yl)phenyl]-1H-benzo[d][1,2,3]triazole-6-carboxamide]
- inhibition at 1 µM (CRAC channels [1]): 91.1%
- IC50 (CRAC channels [2]): 182 nM
- inhibition at 1 µM (CRAC channels [2]; 1 uM): 78%
- inhibition at 10 µM (NCI-H460 cells [3]; Homo sapiens, 48 h): 34%
- IC50 (TNFα): 148 nM
- IC50 (IL-2): 102 nM

Structure (SMILES): O=C(Nc1ccc(-n2nc(C3CC3)cc2C2CC2)cc1)c1ccc2ncccc2c1 [Example 3, N-[4-(3,5-dicyclopropyl-1H-pyrazol-1-yl)phenyl]quinoline-6-carboxamide hydrochloride]
- inhibition at 1 µM (CRAC channels [1]): 100%
- inhibition at 1 µM (CRAC channels [2]; 1 uM): 100%
- IC50 (NCI-H460 cells [3]; Homo sapiens, NCI-H460, 48 h): 261 nM

Structure (SMILES): O=C(Nc1ccc(-n2nc(C3CC3)cc2C2CC2)cc1)c1ccc2nccnc2c1 [Example 4, N-[4-(3,5-dicyclopropyl-1H-pyrazol-1-yl)phenyl]quinoxaline-6-carboxamide]
- inhibition at 1 µM (CRAC channels [1]): 80.7%
- inhibition at 1 µM (CRAC channels [2]; 1 uM): 85%
- inhibition at 10 µM (NCI-H460 cells [3]; Homo sapiens, 48 h): 41%

Structure (SMILES): O=C(Cn1cnc2ccccc21)Nc1ccc(-n2nc(C3CC3)cc2C2CC2)cc1 [Example 5, 2-(1H-benzo[d]imidazol-1-yl)-N-[4-(3,5-dicyclopropyl-1H-pyrazol-1-yl)phenyl]acetamide]
- IC50 (CRAC channels [1]): 79.9 nM
- IC50 (CRAC channels [2]): 383 nM
- inhibition at 1 µM (CRAC channels [2]; 1 uM): 88.5%
- IC50 (NCI-H460 cells [3]; Homo sapiens, NCI-H460, 48 h): 177 nM

Structure (SMILES): O=C(Cn1nnc2ccccc21)Nc1ccc(-n2nc(C3CC3)cc2C2CC2)cc1 [Example 6, 2-(1H-benzo[d][1,2,3]triazol-1-yl)-N-[4-(3,5-dicyclopropyl-1H-pyrazol-1-yl)phenyl]acetamide]
- IC50 (CRAC channels [2]): 51.3 nM
- inhibition at 1 µM (CRAC channels [2]; 1 uM): 94.6%
- IC50 (TNFα): 165 nM
- IC50 (IL-2): 52.2 nM

Structure (SMILES): O=C(Cc1ccc2ncccc2c1)Nc1ccc(-n2nc(C3CC3)cc2C2CC2)cc1 [Example 9, N-[4-(3,5-dicyclopropyl-1H-pyrazol-1-yl)phenyl]-2-(quinolin-6-yl)acetamide]
- mRNA expression of Stim1 (Stim1): significantly reduced
- inhibition at 1 µM (CRAC channels [2]; 1 uM): 100%
- mRNA expression of Stim2 (Stim2): significantly reduced
- IC50 (NCI-H460 cells [3]; Homo sapiens, NCI-H460, 48 h): 270 nM
- mRNA expression of Orai1 (Orai1): significantly reduced
- Cytotoxicity (lactate dehydrogenase in the media) (NCI-H460 cells [4]): not cytotoxic

Structure (SMILES): Cc1nnsc1C(=O)Nc1ccc(-n2nc(C(F)(F)F)cc2C(F)(F)F)cc1 [YM-58483]
- selective index for CRAC channels over VOC [7]: 31

Structure (SMILES): CC(=O)O[C@H]1C(=O)[C@@]2(C)[C@H]([C@H](OC(=O)c3ccccc3)[C@]3(O)C[C@H](OC(=O)[C@H](O)[C@@H](NC(=O)c4ccccc4)c4ccccc4)C(C)=C1C3(C)C)[C@]1(OC(C)=O)CO[C@@H]1C[C@@H]2O [taxol, Paclitaxel, reference compound]
- change in body weight ([5]; intravenous administration): significant reduction
- reduction in tumor growth ([6]; intravenous administration): 36%
